Experimental data reported in ChEMBL document CHEMBL1139772, “Synthesis and SAR studies of novel antifungal 1,2,3-triazines” (Bioorg Med Chem Lett, 2007).
Converted amounts (≈) assume the structure as drawn.

What was measured:
[1] = Partition coefficient, log P of the compound; format: physicochemical; conditions: octanol/water
[2] = Aqueous solubility at pH 7.0; format: physicochemical
[3] = tested on: Blumeria graminis f. sp. tritici; assay: Antifungal activity against Erysiphe graminis f. sp. tritici at […] relative to control; format: functional
[4] = Partition coefficient, log P by chromatographic hydrophobicity method; format: physicochemical; conditions: octanol/water

| logP [1] | solubility [2] [µg/mL] | logP [4] | SMILES | Activity [3] [%] |
| --- | --- | --- | --- | --- |
| 4.25 | 0.08 (≈ 0.224 µM) | 4.06 | COc1nnnc2c1sc1nc(N3CCOCC3)c3c(c12)CCCC3 | 100 |
| – | – | – | CC(Cc1ccc(C(C)(C)C)cc1)CN1C[C@@H](C)O[C@@H](C)C1 (stereo partly specified) [FENPROPIMORPH] | 97 |
| – | 0.08 (≈ 0.233 µM) | 5.32 | CCN(CC)c1nc2sc3c(OC)nnnc3c2c2c1CCCC2 | 100 |
| – | – | – | c1ccc(CSc2nnnc3c2sc2nc(N4CCOCC4)c4c(c23)CCCC4)cc1 | 0 |
| – | – | – | COCCNc1nnnc2c1sc1nc(N3CCOCC3)c3c(c12)CCCC3 | 0 |
| – | – | – | C1CCc2c(c(N3CCOCC3)nc3sc4c(OC5CCCC5)nnnc4c23)C1 | 0 |
| – | – | – | CCCCN(C)c1nc2sc3c(OC)nnnc3c2c2c1CCCC2 | 83 |
| – | – | – | CSc1nnnc2c1sc1nc(N3CCOCC3)c3c(c12)CCCC3 | 100 |
| – | 0.48 (≈ 1.19 µM) | 4.12 | COCCOc1nnnc2c1sc1nc(N(C)CCOC)c3c(c12)CCCC3 | 100 |
| – | 0.21 (≈ 0.523 µM) | 3.82 | COCCOc1nnnc2c1sc1nc(N3CCOCC3)c3c(c12)CCCC3 | 100 |
| – | – | – | c1ccc(NNc2nnnc3c2sc2nc(N4CCOCC4)c4c(c23)CCCC4)cc1 | 0 |
| – | – | – | COc1nnnc2c1sc1nc(O)c3c(c12)CCCC3 | 0 |
| – | 0.32 (≈ 0.89 µM) | 4.31 | COCCN(C)c1nc2sc3c(OC)nnnc3c2c2c1CCCC2 | 100 |
| – | 0.79 (≈ 1.96 µM) | 4.09 | COCCN(CCOC)c1nc2sc3c(OC)nnnc3c2c2c1CCCC2 | 67 |
| – | – | – | Clc1nnnc2c1sc1nc(N3CCOCC3)c3c(c12)CCCC3 | 0 |
| – | – | – | COc1nnnc2c1sc1nc(OS(=O)(=O)C(F)(F)F)c3c(c12)CCCC3 | 40 |

| logP [1] | solubility [2] [µg/mL] | logP [4] | SMILES | Activity [3] [%] |
| --- | --- | --- | --- | --- |
| – | – | – | c1coc(COc2nnnc3c2sc2nc(N4CCOCC4)c4c(c23)CCCC4)c1 | 0 |
| – | – | – | COc1nnnc2c1sc1nc(N(C)Cc3ccccc3)c3c(c12)CCCC3 | 100 |
| – | – | – | CCCOc1nnnc2c1sc1nc(N3CCOCC3)c3c(c12)CCCC3 | 94 |
| – | – | – | CC(C)Oc1nnnc2c1sc1nc(N3CCOCC3)c3c(c12)CCCC3 | 0 |
| – | – | – | CCN(CC)c1nnnc2c1sc1nc(N3CCOCC3)c3c(c12)CCCC3 | 0 |
| – | – | – | C1CCc2c(c(N3CCOCC3)nc3sc4c(N5CCOCC5)nnnc4c23)C1 | 0 |
| – | – | – | CCSc1nnnc2c1sc1nc(N3CCOCC3)c3c(c12)CCCC3 | 100 |
| – | – | – | COc1nnnc2c1sc1nc(N3CCCC3)c3c(c12)CCCC3 | 92 |
| – | – | – | CC(C)CCOc1nnnc2c1sc1nc(N3CCOCC3)c3c(c12)CCCC3 | 0 |
| – | – | – | CCCOc1nc2sc3c(OC)nnnc3c2c2c1CCCC2 | 100 |
| – | – | – | CCCCNc1nnnc2c1sc1nc(N3CCOCC3)c3c(c12)CCCC3 | 0 |
| – | – | – | Sc1nnnc2c1sc1nc(N3CCOCC3)c3c(c12)CCCC3 | 0 |
| – | 0.14 (≈ 0.405 µM) | 3.9 | COCCNc1nc2sc3c(OC)nnnc3c2c2c1CCCC2 | 33 |
| – | – | – | NNc1nnnc2c1sc1nc(N3CCOCC3)c3c(c12)CCCC3 | 0 |
| – | – | – | CCOc1nnnc2c1sc1nc(N3CCOCC3)c3c(c12)CCCC3 | 100 |
